Literature values in patent US20240216394A1, “GOLEXANOLONE FOR USE IN THE TREATMENT OF FATIGUE OR COGNITIVE IMPAIRMENT IN LIVER DISEASE PATIENTS” (Umecrine Cognition AB, priority 2021, published 2024).

Legend:
PBC-related fatigue = details: patients suffering from PBC-related fatigue
[1] = test system: rats following bile duct ligation (BDL)

Row | Compound | Benefit in PBC-related fatigue (PBC-related fatigue) | Effect on whole body fatigue [1]
1 | CNCCC(Oc1ccc(C(F)(F)F)cc1)c1ccccc1 (stereo not shown) [Fluoxetine] | neither have proven beneficial | –
2 | NC(=O)C[S+]([O-])C(c1ccccc1)c1ccccc1 (stereo not shown) [Modafinil] | neither have proven beneficial | –
3 | Rituximab | neither have proven beneficial | –
4 | dehydroepiandrosterone sulphate [DHEAS] | – | positive effect
